We go through 56 molecules from patent publication US20100331297A1, “MODULATION OF PROTEIN TRAFFICKING” (FOLDRX PHARMACEUTICALS, INC., priority 2007, published 2010).

T1 sequence (P13569 with tags, fused parts or gaps DEL508-508): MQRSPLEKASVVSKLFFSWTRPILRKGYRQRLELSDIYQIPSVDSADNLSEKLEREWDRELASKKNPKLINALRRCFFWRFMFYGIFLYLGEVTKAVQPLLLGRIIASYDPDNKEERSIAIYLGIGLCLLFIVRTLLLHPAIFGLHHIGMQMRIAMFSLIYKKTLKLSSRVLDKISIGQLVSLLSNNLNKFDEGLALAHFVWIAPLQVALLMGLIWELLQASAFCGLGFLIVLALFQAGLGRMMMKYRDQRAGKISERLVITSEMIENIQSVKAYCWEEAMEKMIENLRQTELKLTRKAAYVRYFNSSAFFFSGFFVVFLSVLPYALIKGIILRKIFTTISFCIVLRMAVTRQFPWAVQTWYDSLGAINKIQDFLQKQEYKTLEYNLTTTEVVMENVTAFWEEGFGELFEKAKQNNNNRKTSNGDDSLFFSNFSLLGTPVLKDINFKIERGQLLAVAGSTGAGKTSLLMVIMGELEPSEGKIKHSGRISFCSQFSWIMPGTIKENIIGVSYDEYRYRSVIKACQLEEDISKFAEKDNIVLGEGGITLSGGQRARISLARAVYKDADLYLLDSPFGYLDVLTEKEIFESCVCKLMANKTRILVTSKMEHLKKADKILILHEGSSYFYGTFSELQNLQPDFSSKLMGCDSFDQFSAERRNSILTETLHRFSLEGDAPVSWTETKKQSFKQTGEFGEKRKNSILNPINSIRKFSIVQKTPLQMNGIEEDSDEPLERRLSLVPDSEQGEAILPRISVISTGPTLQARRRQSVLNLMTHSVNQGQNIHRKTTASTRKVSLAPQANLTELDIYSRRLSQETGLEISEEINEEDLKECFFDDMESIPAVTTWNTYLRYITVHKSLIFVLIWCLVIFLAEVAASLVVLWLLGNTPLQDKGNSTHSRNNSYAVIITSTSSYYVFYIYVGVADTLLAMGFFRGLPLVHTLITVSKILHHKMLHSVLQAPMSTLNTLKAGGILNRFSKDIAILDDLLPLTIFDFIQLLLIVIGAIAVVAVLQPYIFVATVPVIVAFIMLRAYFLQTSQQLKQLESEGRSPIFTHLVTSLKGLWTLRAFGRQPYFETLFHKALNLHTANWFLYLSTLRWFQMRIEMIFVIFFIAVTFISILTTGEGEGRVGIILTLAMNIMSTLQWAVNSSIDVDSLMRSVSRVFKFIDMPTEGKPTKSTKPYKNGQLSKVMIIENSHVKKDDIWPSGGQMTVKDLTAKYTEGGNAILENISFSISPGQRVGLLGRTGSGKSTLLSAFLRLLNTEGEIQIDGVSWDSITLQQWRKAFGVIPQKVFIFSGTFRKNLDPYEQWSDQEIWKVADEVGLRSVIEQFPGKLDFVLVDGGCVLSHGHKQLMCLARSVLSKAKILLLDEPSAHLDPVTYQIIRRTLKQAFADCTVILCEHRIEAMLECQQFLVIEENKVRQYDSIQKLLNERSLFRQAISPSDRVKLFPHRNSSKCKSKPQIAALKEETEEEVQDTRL

One experiment addresses T1, ΔF508 CFTR (Homo sapiens, UniProt P13569, DEL508-508). Kind of experiment: Potentiator activity, YFP halide (iodide) quenching assay in FRT cells expressing ΔF508 CFTR, 27° C. pre-incubation. The settings on record: FRT cells ΔF508 CFTR/YFP, 24 hours at 27° C., compound with forskolin 30 min. More on the design: expressed in transfected cells; host or cells: Fischer rat thyroid (FRT) cells. Format: cell-based. How it is done: Fisher rat thyroid (FRT) cells stably expressing ΔF508 CFTR and a halide-sensitive variant of yellow fluorescent protein (YFP) were seeded into microtiter plates and allowed to grow for 24 hours at 37° C. and 5% CO2, as described above. The medium was replaced with fresh medium and the cells were incubated for a further 24 hours at 27° C. and 5% CO2 to increase the level of mutant CFTR at the cell surface.
Compounds in DMSO solution were pre-diluted into phosphate-buffered saline solution (PBS) containing forskolin. Activity of CFTR was assayed by removing the medium, washing the cell monolayer with PBS, and then applying the compounds diluted in PBS containing forskolin. After 30 min of incubation at 37° C., the plates were placed in a fluorescence plate reader equipped with a reagent injector. After measuring an initial fluorescence value, iodide-containing buffer was injected and the decrease in fluorescence was followed at excitation and emission wavelengths of 485 and 530 nm, respectively.
Potentiator activity was calculated as follows. Normalized endpoint fluorescence was calculated by dividing the endpoint fluorescence after iodide injection by the initial fluorescence reading and multiplication by 100. Potentiator EC50 values were calculated by the same method as corrector EC50 values.
In general, EC50 refers to the concentration at which the effect is half-maximal. For `CC(=O)N(C(C)=O)c1ncnc2c1c(-c1ccc(Cl)cc1)nn2C(C)(C)C` [Compound No. 97], the EC50 lay in the range of 2 to 5 µM.
Still for that read-out and setting: then `Nc1ncnc2[nH]nc(Oc3cccc(Cl)c3)c12` [Compound No. 220, 3-(3-Chloro-phenoxy)-1H-pyrazolo[3,4-d]pyrimidin-4-ylamine], with above 15 µM; and `Nc1ncnc2c1c(-c1ccc(Cl)cc1)cn2CC1CC1` [Compound No. 242, 5-(4-Chloro-phenyl)-7-cyclopropylmethyl-7H-pyrrolo[2,3-d]pyrimidin-4-ylamine], with 2 to 5 µM.
Still for that read-out and setting: under `CC(C)(C)n1cc(-c2ccc(Cl)cc2)c2c(N)ncnc21` [Compound No. 261, 7-tert-Butyl-5-(4-chloro-phenyl)-7H-pyrrolo[2,3-d]pyrimidin-4-ylamine] stands below 2 µM; under `CC(C)(C)OC(=O)N1CC(n2nc(-c3ccc(Cl)cc3)c3c(N)ncnc32)C1` [Compound No. 267, 3-[4-Amino-3-(4-chloro-phenyl)-pyrazolo[3,4-d]pyrimidin-1-yl]-azetidine-1-carboxylic acid tert-butyl ester], 2 to 5 µM; under `CC(C)(C)n1nc(-c2ccc(Cl)cc2)c2c(NS(C)(=O)=O)ncnc21` [Compound No. 274, N-[1-tert-Butyl-3-(4-chloro-phenyl)-1H-pyrazolo[3,4-d]pyrimidin-4-yl]-methanesulfonamide], above 15 µM.

For the next experiment, the target named is T1, ΔF508 CFTR. Briefly: Corrector activity, YFP halide (iodide) quenching assay in FRT cells expressing ΔF508 CFTR. Type of experiment: cell-based. Details: expressed in transfected cells; host or cells: Fischer rat thyroid (FRT) cells. As to conditions: FRT cells ΔF508 CFTR/YFP, 24 hours with compound at 37° C., forskolin and genistein; read-out: Corrector EC50. How it is done:
Fisher rat thyroid (FRT) cells stably expressing ΔF508 CFTR and a halide-sensitive variant of yellow fluorescent protein (YFP) were seeded into microtiter plates and allowed to grow for 24 hours at 37° C. and 5% CO2. See Pedemonte et al., J. Clin. Invest. […] Compounds in dimethylsulfoxide (DMSO) solution were pre-diluted into cell culture medium, the medium was removed from cells, and then fresh medium containing the compounds was applied. The cells were incubated for a further 24 hours at 37° C. and 5% CO2.
Activity of CFTR was assayed by removing the medium, washing the cell monolayer with phosphate-buffered saline solution (PBS), and then applying PBS containing forskolin and genistein. After 30 min incubation at 37° C., the plates were placed in a fluorescence plate reader equipped with a reagent injector.
Corrector activity was calculated as follows. Normalized endpoint fluorescence was calculated by dividing the endpoint fluorescence after iodide injection by the initial fluorescence reading and multiplication by 100. Corrector EC50 values were calculated from the activity vs. concentration data using a 4-parameter log fit. The bottom of the curve was constrained to zero activity (DMSO control) while the slope, EC50, and top of the curve were fitted to the data. The EC50 was determined as the concentration that corresponds to the inflection point of the fitted curve.
On to `CC(=O)N(C(C)=O)c1ncnc2c1c(-c1ccc(Cl)cc1)nn2C(C)(C)C` [Compound No. 97], for which the EC50 lay within 2 to 5 µM.
On the same count and under the same terms, then `Nc1ncnc2[nH]nc(Oc3cccc(Cl)c3)c12` [Compound No. 220, 3-(3-Chloro-phenoxy)-1H-pyrazolo[3,4-d]pyrimidin-4-ylamine], with above 15 µM.
Still for that read-out and setting: then `Nc1ncnc2c1c(-c1ccc(Cl)cc1)cn2CC1CC1` [Compound No. 242, 5-(4-Chloro-phenyl)-7-cyclopropylmethyl-7H-pyrrolo[2,3-d]pyrimidin-4-ylamine], with below 2 µM.
On the same count and under the same terms, then `CC(C)(C)n1cc(-c2ccc(Cl)cc2)c2c(N)ncnc21` [Compound No. 261, 7-tert-Butyl-5-(4-chloro-phenyl)-7H-pyrrolo[2,3-d]pyrimidin-4-ylamine], with below 2 µM; and `CC(C)(C)OC(=O)N1CC(n2nc(-c3ccc(Cl)cc3)c3c(N)ncnc32)C1` [Compound No. 267, 3-[4-Amino-3-(4-chloro-phenyl)-pyrazolo[3,4-d]pyrimidin-1-yl]-azetidine-1-carboxylic acid tert-butyl ester], with above 15 µM.
Take `CC(C)(C)n1nc(-c2ccc(Cl)cc2)c2c(NS(C)(=O)=O)ncnc21` [Compound No. 274, N-[1-tert-Butyl-3-(4-chloro-phenyl)-1H-pyrazolo[3,4-d]pyrimidin-4-yl]-methanesulfonamide]: the EC50 fell in the range of 2 to 5 µM.
The same measure, in the same setting: then `CC(C)C(=O)Nc1ncnc2c1c(-c1ccc(Cl)cc1)cn2C(C)(C)C` [compound 366], with above 15 µM; and `CC(C)(C)n1cc(-c2cccc(Cl)c2)c2c(NC(=O)C3CCCC3)ncnc21` [compound 367], with 5 to 10 µM.
On the same count and under the same terms, under `CCC(=O)Nc1ncnc2c1c(-c1cccc(Cl)c1)cn2C(C)(C)C` [compound 368] stands 5 to 10 µM; under `CC(C)C(=O)Nc1ncnc2c1c(Oc1cccc(Cl)c1)nn2C(C)(C)C` [compound 369], 2 to 5 µM.
As to `CC(C)(C)n1nc(Oc2nccc3ccccc23)c2c(N)ncnc21` [compound 370, 1-tert-Butyl-3-(isoquinolin-1-yloxy)-1H-pyrazolo[3,4-d]pyrimidin-4-ylamine], the EC50 is above 15 µM.
On the same count and under the same terms, then `CCC(=O)Nc1ncnc2c1c(-c1ccc(Cl)cc1)cn2C(C)(C)C` [compound 371], with below 2 µM; and `CC(=O)Nc1ncnc2c1c(-c1ccc(Cl)cc1)cn2C(C)(C)C` [compound 372], with 2 to 5 µM; and `CC(C)(C)n1cc(-c2ccc(Cl)cc2)c2c(NC(=O)C3CCCO3)ncnc21` (centres unmarked) [compound 373], with 5 to 10 µM.
Still for that read-out and setting: then `CC(C)(C)n1cc(-c2ccc(Cl)cc2)c2c(NC(=O)C3CCOC3)ncnc21` (centres unmarked) [compound 374], with below 2 µM; and `CN1CCC(C(=O)Nc2ncnc3c2c(-c2ccc(Cl)cc2)cn3C(C)(C)C)C1` (centres unmarked) [compound 375], with below 2 µM.
Still for that read-out and setting: under `CC(C)(C)n1cc(-c2ccc(Cl)cc2)c2c(NC(=O)C3CCCO3)ncnc21` (centres unmarked) [compound 376] stands 2 to 5 µM.
On to `CC(C)(C)C(=O)Nc1ncnc2c1c(Oc1cccc(Cl)c1)nn2C(C)(C)C` [compound 377], for which the EC50 was above 15 µM.
The same measure, in the same setting: under `CN1CCC(n2nc(-c3ccc(Cl)cc3)c3c(N)ncnc32)CC1` [compound 378] stands above 15 µM.
On the same count and under the same terms, then `CN1CC[C@H](n2nc(-c3ccc(Cl)cc3)c3c(N)ncnc32)C1` [compound 379], with above 15 µM.
Turning to `CC(=O)N1CC(n2nc(Oc3cccc(Cl)c3)c3c(N)ncnc32)C1` [compound 380], the EC50 is above 15 µM.
As to `CCNC(=O)N1CC(n2nc(Oc3cccc(Cl)c3)c3c(N)ncnc32)C1` [compound 381], the EC50 was above 15 µM.
Still for that read-out and setting: then `CN1CC(n2nc(Sc3cccc(Cl)c3)c3c(N)ncnc32)C1` [compound 382], with above 15 µM; and `CN1CC(n2nc(Sc3ccccc3)c3c(N)ncnc32)C1` [compound 383], with above 15 µM.
The same measure, in the same setting: under `CC(C)N1CC(n2nc(Sc3ccccc3)c3c(N)ncnc32)C1` [compound 384] stands above 15 µM; under `CC(C)(C)OC(=O)N1CC(n2nc([S+]([O-])c3ccccc3)c3c(N)ncnc32)C1` (centres unmarked) [compound 385], above 15 µM.
Same read-out and setting: then `CCOC(=O)N1CCC(n2nc(Oc3ccccc3)c3c(N)ncnc32)CC1` [compound 386], with above 15 µM.
Consider `CN1CC(n2nc(Cc3cccc4ccccc34)c3c(N)ncnc32)C1` [compound 387], for which the EC50 was above 15 µM.
Same read-out and setting: then `CC(C)(C)C(=O)Nc1ncnc2c1cnn2C(C)(C)C` [compound 389], with above 15 µM.
Same read-out and setting: then `CC(C)C(=O)Nc1ncnc2c1cnn2C(C)(C)C` [compound 390], with above 15 µM; and `CC(C)(C)n1cc(-c2ccc(Cl)cc2)c2c(NC(=O)C3CCC3)ncnc21` [compound 391], with 2 to 5 µM.
Still for that read-out and setting: then `CCn1nc([S+]([O-])c2cccc(Br)c2)c2c(N)ncnc21` (centres unmarked) [compound 392], with above 15 µM; and `CC(C)(C)n1nc(-c2ccc(Cl)cc2)c2c(NC(=O)C3CCOC3)ncnc21` (centres unmarked) [compound 393], with 5 to 10 µM; and `CC(C)C(=O)C(=O)Nc1ncnc2c1c(-c1ccc(Cl)cc1)nn2C(C)(C)C` [compound 394], with above 15 µM.
For `CC(C)(C)n1nc(-c2ccc(Cl)cc2)c2c(NC(=O)C3CC3)ncnc21` [compound 396], the EC50 is 5 to 10 µM.
Still for that read-out and setting: then `CC(C)(C)n1nc(-c2ccc(Cl)cc2)c2c(NC(=O)N3CCCC3)ncnc21` [compound 398], with above 15 µM.
Turning to `CC(C)(C)n1cc(-c2ccc(Cl)cc2)c2c(NC(=O)N3CCCC3)ncnc21` [compound 399], the EC50 is above 15 µM.
On the same count and under the same terms, then `CC(C)(C)n1nc(Oc2cccc(Cl)c2)c2c(NC(=O)N3CCCC3)ncnc21` [compound 400], with above 15 µM.
`CCn1c(C)c(-c2ccc(Cl)cc2)c2c(N)ncnc21` [compound 401]: the EC50 is 2 to 5 µM.
Same read-out and setting: under `CC(C)N1CC(n2nc(Oc3cccc(Cl)c3)c3c(N)ncnc32)C1` [compound 402] stands above 15 µM; under `CCOC(=O)N1CC(n2nc(Oc3cccc(Cl)c3)c3c(N)ncnc32)C1` [compound 403], above 15 µM.
On the same count and under the same terms, then `CC(=O)N1CC(n2nc([S+]([O-])c3ccccc3)c3c(N)ncnc32)C1` (centres unmarked) [compound 404], with above 15 µM.
The same measure, in the same setting: under `CCOC(=O)N1CC(n2nc([S+]([O-])c3ccccc3)c3c(N)ncnc32)C1` (centres unmarked) [compound 405] stands above 15 µM; under `Nc1ncnc2c1c(Oc1cccc(Cl)c1)nn2C1CNC1` [compound 414], above 15 µM.
As to `Nc1ncnc2c1c(Sc1cccc(Cl)c1)nn2C1CNC1` [compound 415], the EC50 was above 15 µM.
On the same count and under the same terms, then `Nc1ncnc2c1c(Sc1ccccc1)nn2C1CNC1` [compound 416], with above 15 µM; and `Nc1ncnc2c1c(Oc1ccccc1)nn2C1CCNCC1` [compound 417], with above 15 µM; and `Nc1ncnc2c1c([S+]([O-])c1cccc(Cl)c1)nn2C1CNC1` (centres unmarked) [compound 418], with above 15 µM.
On the same count and under the same terms, then `CCNC(=O)N1CC(n2nc([S+]([O-])c3ccccc3)c3c(N)ncnc32)C1` (centres unmarked) [compound 419], with above 15 µM; and `CC(=O)N1CCC(n2nc(Oc3ccccc3)c3c(N)ncnc32)CC1` [compound 420], with above 15 µM.
Still for that read-out and setting: under `CC(C)(C)n1nc(Br)c2c(NC(=O)c3ccccc3)ncnc21` [compound 421] stands 2 to 5 µM; under `CC(C)(C)C(=O)Nc1ncnc2c1c(Br)nn2C(C)(C)C` [compound 422], 2 to 5 µM.
Consider `CC(C)C(=O)Nc1ncnc2c1c(Br)nn2C(C)(C)C` [compound 423], for which the EC50 was below 2 µM.
The same measure, in the same setting: then `CCNC(=O)Nc1ncnc2c1c(Cc1cccc(Cl)c1)nn2C1CN(C(=O)NCC)C1` [compound 424], with above 15 µM; and `CC(C)(C)n1nc(Br)c2c(N(C(=O)c3ccccc3)C(=O)c3ccccc3)ncnc21` [compound 425], with 2 to 5 µM; and `CC(C)C(=O)N(C(=O)C(C)C)c1ncnc2c1c(Br)nn2C(C)(C)C` [compound 426], with 5 to 10 µM.
